# ChEMBL document CHEMBL1149715, “Inhibition of the Mycobacterium tuberculosis enoyl acyl carrier protein reductase InhA by arylamides” (Bioorg Med Chem, 2007)
# Target: T1, Enoyl-[acyl-carrier-protein] reductase [NADH] (Mycobacterium tuberculosis, UniProt P9WGR1)
# T1 sequence (P9WGR1 whole entry): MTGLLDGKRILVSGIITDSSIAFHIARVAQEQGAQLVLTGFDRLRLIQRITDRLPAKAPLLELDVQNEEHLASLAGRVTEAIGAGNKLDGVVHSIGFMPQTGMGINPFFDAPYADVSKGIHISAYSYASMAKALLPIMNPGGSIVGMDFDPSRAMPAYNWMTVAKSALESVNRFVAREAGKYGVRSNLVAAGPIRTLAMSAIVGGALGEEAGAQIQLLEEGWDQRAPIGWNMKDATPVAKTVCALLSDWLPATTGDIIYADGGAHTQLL
row,Structure (SMILES),IC50 [µM]
1,Cc1cccc(C(=O)N2CCN(c3ccc([N+](=O)[O-])cc3)CC2)c1,15.5
2,O=C(c1ccc(F)cc1)N1CCN(c2cccc(Cl)c2)CC1,9.74
3,CC(C)c1ccc(C(=O)N2CCN(c3cccc(Cl)c3)CC2)cc1,> 100
4,O=C(c1ccccc1)N1CCN(Cc2ccccc2)CC1,31.5
5,O=C(c1ccccc1F)N1CCC(Cc2ccccc2)CC1,14.1
6,O=C(c1ccc2[nH]ccc2c1)N1CCN(C(c2ccc(F)cc2)c2ccc(F)cc2)CC1,1.04
7,O=C(c1ccccc1F)N1CCN(c2cccc(Cl)c2)CC1,13.9
8,Cc1ccc(N2CCN(C(=O)c3ccc(C(C)(C)C)cc3)CC2)cc1Cl,> 100
9,Cc1ccc(C(=O)N2CCC(Cc3ccccc3)CC2)cc1,5.16
10,CC(C)(C)c1ccc(C(=O)N2CCN(c3cccc(Cl)c3)CC2)cc1,> 100
11,O=C(c1ccccc1)N1CCN(C(c2ccc(F)cc2)c2ccc(F)cc2)CC1,2.04
12,Cc1ccc(C(=O)N2CCN(c3cccc(C(F)(F)F)c3)CC2)cc1C,1.85
13,CC(C)(C)c1ccc(C(=O)N2CCN(c3cccc(C(F)(F)F)c3)CC2)cc1,> 100
14,Cc1cccc(C(=O)N2CCN(c3cccc(Cl)c3)CC2)c1,9.43
15,Cc1ccc(C(=O)N2CCN(c3cccc(Cl)c3)CC2)cc1,3.07
16,Cc1ccc(C(=O)N2CCN(C(c3ccc(F)cc3)c3ccc(F)cc3)CC2)cc1,1.89
17,O=C(c1cccc(Cl)c1)N1CCC(Cc2ccccc2)CC1,7.74
18,Cc1cccc(C(=O)N2CCC(Cc3ccccc3)CC2)c1,7.39
19,O=C(c1ccccc1)N1CCN(C2c3ccccc3-c3ccccc32)CC1,0.09
20,Cc1ccc(C(=O)N2CCN(c3ccccc3)CC2)cc1,16.6
21,O=C(c1cccc(Cl)c1)N1CCN(c2cccc(Cl)c2)CC1,6.73
22,Cc1ccc(C(=O)N2CCN(c3cccc(Cl)c3)CC2)cc1C,0.99
23,Cc1ccc(C(=O)N2CCN(C3c4ccccc4-c4ccccc43)CC2)cc1,0.4
24,O=C(c1ccc(Cl)c(Cl)c1)N1CCN(c2cccc(Cl)c2)CC1,6.05
25,O=C(c1ccc(Cl)c(Cl)c1)N1CCN(c2ccccc2)CC1,17.6
26,O=C(c1ccccc1)N1CCN(c2ccccc2)CC1,38.9
27,Cc1ccc(C(=O)N2CCN(c3cccc(C(F)(F)F)c3)CC2)cc1,6.26

# Tested on: Mycobacterium tuberculosis
# Test: Antibacterial activity against Mycobacterium tuberculosis H37Rv by Alamar blue assay
# Type: functional
row,Structure (SMILES),MIC [µM]
1,Cc1cccc(C(=O)N2CCN(c3ccc([N+](=O)[O-])cc3)CC2)c1,125
2,O=C(c1ccc2[nH]ccc2c1)N1CCN(C(c2ccc(F)cc2)c2ccc(F)cc2)CC1,62.5
3,O=C(c1ccccc1)N1CCN(C(c2ccc(F)cc2)c2ccc(F)cc2)CC1,125
